From patent publication US20250108038A1 (priority 2023, published 2025) come the findings set out here.

Structures are written as SMILES. Values joined by “and” are separate entries in the source; they are usually repeats but may differ in a detail not shown here. Equal values may be shown once. Read-outs that look alike come from different tables or passages of the source.

The target in one data set is T1, CYP2B6 (Homo sapiens, UniProt P20813).
T1 sequence (P20813 1-491): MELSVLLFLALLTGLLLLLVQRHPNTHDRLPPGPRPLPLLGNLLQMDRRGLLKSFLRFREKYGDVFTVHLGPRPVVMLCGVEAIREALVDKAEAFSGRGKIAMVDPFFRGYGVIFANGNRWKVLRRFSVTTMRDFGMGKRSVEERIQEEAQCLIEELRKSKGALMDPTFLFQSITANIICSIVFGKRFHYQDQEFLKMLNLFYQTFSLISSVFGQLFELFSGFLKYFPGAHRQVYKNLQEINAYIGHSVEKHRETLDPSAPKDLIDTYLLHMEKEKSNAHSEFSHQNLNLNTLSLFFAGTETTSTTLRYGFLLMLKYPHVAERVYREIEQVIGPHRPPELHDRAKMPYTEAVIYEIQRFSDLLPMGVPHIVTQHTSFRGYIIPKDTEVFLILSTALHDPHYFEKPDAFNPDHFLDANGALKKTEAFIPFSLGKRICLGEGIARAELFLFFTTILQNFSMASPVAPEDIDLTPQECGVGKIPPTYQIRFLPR
Briefly: in vitro. The following applies: both, pH 7.4.

Data set [1] is described as follows: Plasma and brain concentrations after 3 mg/kg i.p. in male CD-1 mice. Conditions: for fu* Cmax: fu by equilibrium dialysis after 6 h. The procedure:
Following dosing, three animals were sacrificed per time-point for the collection of terminal plasma and brain. […] Pharmacokinetics (PK) parameters for plasma and whole brain were estimated from the mean plasma and brain concentration versus time profiles.
The animals will be acclimatized to their new environment for a minimum of 5 days prior to study start.
Any unused dosing solutions will be stored at approximately −80° C. until transferred on dry ice to the bioanalytical facility.
The animals will be dosed intra-peritoneally (i.p.) into the lower right quadrant of the abdomen using a 0.5 mL Tuberculin syringe with attached needle 27 G×[…].
Whole blood will be collected via cardiac puncture under isoflurane anesthesia from three mice at each time-point at the collection times outlined in Table 2. Up to 0.8 mL of blood will be collected into 0.8 mL mini-collect K2EDTA coated tubes. Blood tubes will be centrifuged at 3200×g for 5 min. at 4° C. and plasma transferred into 1.5 mL flip top tubes. One vial of plasma for each collection time point will stored at approximately […] until transferred on dry ice to the bioanalytical facility.
Following cardiac puncture, mice will be perfused with 12 mL of ice-cold PBS via the left ventricle. Brains will then be excised, blotted and placed into pre-weighed 5 mL self standing green top sample tubes. Tubes containing brains will be re-weighed and then snap frozen in liquid nitrogen. Brain samples will be stored frozen at approximately −80° C. until transferred on dry ice to the bioanalytical facility.

Where [2] appears, read: 3 mg/kg i.p. Compound I-19, male CD-1 mice.
Setting [3] is: after 3 mg/kg i.p. Compound I-19.
[4] abbreviates: after 3 mg/kg i.p. Compound I-19, below the lower levels of quantitation.
The mark [5] stands for this setting: brain, 3 mg/kg i.p. Compound I-19, male CD-1 mice.
[6] abbreviates: plasma, 3 mg/kg i.p. Compound I-19, male CD-1 mice.

With `OC1(c2ccc(Cl)cc2)c2ccccc2C2=NCCN21` (centres unmarked) [Compound A, 5-(4-chlorophenyl)-2,3-dihydroimidazo[1,2-b]isoindol-5-ol, reference compound], the inhibition (commonly the drop in the measured response relative to a control, in per cent) at 10 µM on CYP2B6 turned out to be 62%.

In the case of `Clc1ccc(C2(OCC3OCCO3)c3ccccc3C3=NCCN32)cc1` (centres unmarked) [Compound I-19], in data set [1] (3 mg/kg i.p.), the “Cmax in brain relative to plasma” value worked out at 1.8 fold; the “Maximum brain concentration (Cmax) of Compound I-19” value came to 1182 nmol/kg; the “Tmax of Compound I-19 (plasma and brain)” value stood at 5 min; the “apparent half-life in brain” value is 25.6 min and 25.2 min. The “apparent half-life in plasma” value in data set [1] (3 mg/kg i.p.) is 25.4 min and 25.2 min. In data set [1] (setting [2]), the “(fu* AUC0-inf)brain/(fu*AUC0-inf)plasma ratio (Kp, uu)” value is recorded as 2.12 and the “Brain/plasma AUC0-inf ratio (Kp)” value is listed as 2.38. Besides, the “brain to plasma partitioning coefficient (Kp)” value in data set [1] (3 mg/kg i.p., AUC0-inf based) is reported as 2.38. Besides, the “brain to plasma unbound partition coefficient (Kp,uu)” value in data set [1] (3 mg/kg i.p., corrected for unbound fractions) stood at 2.12. In addition, in data set [1] (setting [3]), the “Tmax of Compound A in brain” value stood at 45 min, the “Tmax of Compound A in plasma” value came out at 15 min, the “peak brain concentration of Compound A” value came out at 60.3 nmol/kg and the “peak plasma concentration of Compound A” value was found to be 48.2 nmol/L. In data set [1] (setting [4]), the “brain concentration of Compound B” value was less than 3 nmol/kg and the “plasma concentration of Compound B” value is recorded as less than 1 nM. Besides, the Cmax in data set [1] (brain (expressed as nmol/kg = nmol/L per footnote), 3 mg/kg i.p. Compound I-19, male CD-1 mice) is 1180 nM. In addition, in data set [1] (setting [5]), the AUC0-inf stood at 0.521 µM·h, the “Apparent T1/2” value stood at 25.6 min, the time of peak concentration (Tmax) (usually the time from dosing to the highest level) amounted to 5 min and the “fu* AUC0-inf” value was determined as 0.0172 µM·h. The “fu* Cmax” value in data set [1] (setting [5]) was determined as 39.1 nM. In data set [1] (setting [6]), the AUC0-inf came out at 0.218 µM·h, the “Apparent T1/2” value was 25.4 min, the Cmax came out at 648 nM and the time to peak (Tmax) was determined as 5 min. Besides, in data set [1] (setting [6]), the “fu* AUC0-inf” value came out at 0.00813 µM·h and the “fu* Cmax” value stood at 24.1 nM. Moreover, the Cmax in data set [1] (read-out: Maximum plasma concentration (Cmax) of Compound I-19, 3 mg/kg i.p.) was found to be 648 nM.
